Laboratory results: patent US20230051589A1, “COMPOUNDS AND COMPOSITIONS FOR TREATING CONDITIONS ASSOCIATED WITH NLRP ACTIVITY” (Novartis AG, priority 2018, published 2023)
Where two headings read alike, the source gives them in different places. Each block holds one compound with its values, some of them ahead of it.

Tested on: IL-1β production in PMA-differentiated THP-1 cells
Assay: IL-1β production in PMA-differentiated THP-1 cells stimulated with gramicidin (hTHP-1 assay, 2% fetal bovine serum; Procedures 1-3)
Type: cell-based, human
Summary of the method: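 IL-1β released into supernatants was read by HTRF after 2 h gramicidin (5 μM) challenge. Before challenge, compounds (3-fold dilutions, top 100 μM, 0.37% DMSO) were given 1 h on THP-1 cells differentiated with PMA (20 ng/ml, 16-18 h) and held in 2% FBS medium.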

[1] = hTHP-1 assay containing 2% fetal bovine serum, Table B2, class symbols, read-out: IC50
[2] = hTHP-1 assay containing 2% fetal bovine serum, Table B2, given as bound, read-out: IC50
[3] = Homo sapiens, THP-1, Table B1, hTHP-1 assay containing 2% fetal bovine serum, gramicidin stimulation, IL-1β readout, read-out: hTHP-1 IC50 (average)
[4] = Homo sapiens, THP-1, hTHP-1 assay containing 2% fetal bovine serum, Table B2, class symbols, read-out: IC50
[5] = Table B3, hTHP-1 assay containing 2% fetal bovine serum, gramicidin stimulation, IL-1β readout, read-out: hTHP-1 IC50
[6] = Table B1, hTHP-1 assay containing 2% fetal bovine serum, gramicidin stimulation, IL-1β readout, read-out: hTHP-1 IC50 (average)
[7] = Homo sapiens, THP-1, Table B3, hTHP-1 assay containing 2% fetal bovine serum, gramicidin stimulation, IL-1β readout, read-out: hTHP-1 IC50

IC50 [2]: > 30 µM
Compound: CN(C)C(c1ccc(S(N)(=O)=NC(=O)Nc2c3c(cc4c2CCC4)CCC3)cc1)C(F)F (single isomer, unassigned) [Example 645, (S,S) or (R,S)-4-(-1-(dimethylamino)-2,2-difluoroethyl)-N′-((1,2,3,5,6,7-hexahydro-s-indacen-4-yl)carbamoyl) benzenesulfonimidamide]

IC50 [1]: 1 to 5 µM
Compound: CC(C)(O)c1cnc(S(N)(=O)=NC(=O)Nc2c3c(cc4c2C(O)CC4)CCC3)s1 (single isomer, unassigned) [Example 651, (R,S) or (R,R)-N′-((3-hydroxy-1,2,3,5,6,7-hexahydro-s-indacen-4-yl)carbamoyl)-5-(2-hydroxypropan-2-yl)thiazole-2-sulfonimidamide]

IC50 [5]: 5 to 30 µM
Compound: CC(C)c1cnc(S(N)(=O)=NC(=O)Nc2c3c(cc4c2CCC4)CCC3)c(F)c1 (single isomer, unassigned) [Example 812, (S) or (R)-3-fluoro-N′-((1,2,3,5,6,7-hexahydro-s-indacen-4-yl)carbamoyl)-5-isopropylpyridine-2-sulfonimidamide]

IC50 [7]: 0.2 to 1 µM
Compound: CC(C)(O)c1sc(S(N)(=O)=NC(=O)Nc2c3c(cc4c2CCC4)CCC3)cc1-c1ccccc1 (centres unmarked) [Example 760, N′-((1,2,3,5,6,7-hexahydro-s-indacen-4-yl)carbamoyl)-5-(2-hydroxypropan-2-yl)-4-phenylthiophene-2-sulfonimidamide]

IC50 [5]: 0.2 to 1 µM
Compound: CNCc1csc(S(N)(=O)=NC(=O)Nc2c3c(cc4c2CC4)CCC3)c1 (single isomer, unassigned) [Example 838, (S) or (R)-4-((methylamino)methyl)-N′-((2,4,5,6-tetrahydro-1H-cyclobuta[f]inden-3-yl)carbamoyl)thiophene-2-sulfonimidamide]

IC50 [7]: 0.2 to 1 µM
Compound: C#CCCC1(CCC(=O)N(C)Cc2ccc([S@@](N)(=O)=NC(=O)Nc3c4c(cc5c3CCC5)CCC4)cc2)N=N1 [compound 771]

IC50 [7]: 1 to 5 µM
Compound: CC(C)n1nc(S(N)(=O)=NC(=O)Nc2c3c(cc4c2C(=O)CC4)CCC3)cc1CO (centres unmarked) [compound 739, 5-(Hydroxymethyl)-1-isopropyl-N′-((3-oxo-1,2,3,5,6,7-hexahydro-s-indacen-4-yl)carbamoyl)-1H-pyrazole-3-sulfonimidamide]

IC50 [5]: 0.04 to 0.2 µM
Compound: NS(=O)(=NC(=O)Nc1c2c(cc3c1CCC3)CCC2)c1cc2c(s1)CCNC2 (single isomer, unassigned) [Example 787, (R) or (S)-N′-((1,2,3,5,6,7-hexahydro-s-indacen-4-yl)carbamoyl)-4,5,6,7-tetrahydrothieno[3,2-c]pyridine-2-sulfonimidamide]

IC50 [4]: 1 to 5 µM
Compound: N[S@@](=O)(=NC(=O)Nc1c2c(cc3c1CCC3)CCC2)c1ccc(CNCC(F)F)cc1 [Example 708, (R)-4-(((2,2-difluoroethyl)amino)methyl)-N′-((1,2,3,5,6,7-hexahydro-s-indacen-4-yl)-carbamoyl)benzenesulfonimidamide]

IC50 [5]: 1 to 5 µM
Compound: CN1CCc2sc(S(N)(=O)=NC(=O)Nc3c4c(cc5c3CC5)CCC4)c(F)c2C1 (single isomer, unassigned) [Example 836, (S) or (R)-3-fluoro-5-methyl-N′-((2,4,5,6-tetrahydro-1H-cyclobuta[f]inden-3-yl)carbamoyl)-4,5,6,7-tetrahydrothieno[3,2-c]pyridine-2-sulfonimidamide]

IC50 [4]: 0.2 to 1 µM
Compound: C[C@@](O)(COCCOCc1ccccc1)c1ncc(S(N)(=O)=NC(=O)Nc2c3c(cc4c2CCC4)CCC3)s1 (stereo partly drawn) [Example 683, 2-((R)-1-(2-(benzyloxy)ethoxy)-2-hydroxypropan-2-yl)-N′-((1,2,3,5,6,7-hexahydro-s-indacen-4-yl)carbamoyl)thiazole-5-sulfonimidamide]

The remaining lines, values behind:

Compound: NS(=O)(=NC(=O)Nc1c2c(cc3c1CCC3)CCC2)c1cnn2c1OC[C@H](O)C2 (single isomer, unassigned) [Example 515, (R,6R) or (S,6R)-N′-((1,2,3,5,6,7-hexahydro-s-indacen-4-yl)carbamoyl)-6-hydroxy-6,7-dihydro-5H-pyrazolo[5,1-b] [1,3]oxazine-3-sulfonimidamide]
IC50 [1]: 0.04 to 0.2 µM

Compound: CN1CCc2cc(S(N)(=O)=NC(=O)Nc3c4c(cc5c3CCC5)CCC4)sc2C1 (single isomer, unassigned) [Compound 413a]
IC50 [3]: 0.04 to 0.2 µM

Compound: CC(C)(O)c1ccc(S(N)(=O)=NC(=O)Nc2cc3c(c4c2CCC4)CCC3)cn1 (single isomer, unassigned) [Example 591, (R) or (S)-N′-((1,2,3,6,7,8-hexahydro-as-indacen-4-yl)carbamoyl)-6-(2-hydro\ypropan-2-yl)pyridine-3-sulfonimidamide]
IC50 [4]: 1 to 5 µM

Compound: CNCC(C)(C)c1ccc(S(N)(=O)=NC(=O)Nc2c3c(cc4c2CCC4)CCC3)cc1 (single isomer, unassigned) [Example 520, (S) or (R)-N′-((1,2,3,5,6,7-hexahydro-s-indacen-4-yl)carbamoyl)-4-(2-methyl-1-(methylamino)propan-2-yl) benzenesulfonimidamide]
IC50 [1]: 5 to 30 µM

Compound: COC(C)(C)c1ccc(S(N)(=O)=NC(=O)Nc2c3c(cc4c2CCC4)CCC3)cc1 (single isomer, unassigned) [Example 399, (R) or (S)-N′-((1,2,3,5,6,7-hexahydro-s-indacen-4-yl)carbamoyl)-4-(2-meth-oxypropan-2-yl)benzene-sulfonimidamide]
IC50 [6]: 0.2 to 1 µM

Compound: NS(=O)(=NC(=O)Nc1c2c(cc3c1CCC3)CCC2)c1ccccc1 (single isomer, unassigned) [Example 613, (S) or (R)-N′-((1,2,3,5,6,7-hexahydro-s-indacen-4-yl)carbamoyl) benzenesulfonimidamide]
IC50 [2]: > 30 µM

Compound: CC(C)(O)c1csc(S(N)(=O)=NC(=O)Nc2c3c(c(Cl)c4c2CCC4)CCC3)c1 (single isomer, unassigned) [Example 89]
IC50 [6]: 0.008 to 0.04 µM

Compound: CC(C)(O)c1ncc(S(N)(=O)=NC(=O)Nc2c3c(cc4c2CCC4)CCC3)s1 (single isomer, unassigned) [Example 6]
IC50 [6]: 0.008 to 0.04 µM

Compound: CNCc1cc(F)c(S(N)(=O)=NC(=O)Nc2c3c(cc4c2CCC4)CCC3)s1 (single isomer, unassigned) [Example 570, (R) or (S)-3-fluoro-N′-((1,2,3,5,6,7-hcxahydro-s-indacen-4-yl)carbamoyl)-5-((methylamino)methyl) thiophene-2-sulfonimidamide]
IC50 [1]: 0.008 to 0.04 µM

Compound: NS(=O)(=NC(=O)Nc1c2c(cc3c1CCC3)CCC2)c1ccc(CN2CCC(F)(F)C2)cc1 (single isomer, unassigned) [Example 621, (S) or (R)-4-((3,3-difluoropymolidin-1-yl)methyl)-N′-((1,2,3,5,6,7-hexahydro-s-indacen-4-yl)carbamoyl) benzenesulfonimidamide]
IC50 (Homo sapiens, THP-1, hTHP-1 assay containing 2% fetal bovine serum, Table B2, given as bound, read-out: IC50): > 30 µM

Compound: CC(C)(O)c1nc(S(N)(=O)=NC(=O)Nc2c3c(cc4c2CCC4)CCC3)cs1 (single isomer, unassigned) [Example 556, (S) or (R)-N′-((1,2,3,5,6,7-hexahydro-s-indacen-4-yl)carbamoyl)-2-(2-hydroxypropan-2-yl)thiazole-4-sulfonimidamide]
IC50 [1]: 5 to 30 µM

Compound: Cc1oc(S(N)(=O)=NC(=O)Nc2c3c(cc4c2CCC4)CCC3)cc1C(C)(C)O (single isomer, unassigned) [Example 3]
IC50 [3]: 0.2 to 1 µM
